Assay results from patent US20180334447A1, “2,3,4,5-TETRAHYDROPYRIDIN-6-AMINE DERIVATIVES” (JANSSEN PHARMACEUTICA NV, priority 2015, published 2018).

Key:
[1] = target: T1, recombinant BACE2 protein (Homo sapiens, UniProt Q9Y5Z0); assay: BACE2 biochemical FRET based assay; conditions: BACE2, 450 minutes at room temperature, pH 5.0; read-out: Biochemical FRET based assay pIC50 (converted)
T1 construct: recombinant BACE2 protein in a final concentration of 0.4 μg/ml
T1 sequence (Q9Y5Z0 63-518): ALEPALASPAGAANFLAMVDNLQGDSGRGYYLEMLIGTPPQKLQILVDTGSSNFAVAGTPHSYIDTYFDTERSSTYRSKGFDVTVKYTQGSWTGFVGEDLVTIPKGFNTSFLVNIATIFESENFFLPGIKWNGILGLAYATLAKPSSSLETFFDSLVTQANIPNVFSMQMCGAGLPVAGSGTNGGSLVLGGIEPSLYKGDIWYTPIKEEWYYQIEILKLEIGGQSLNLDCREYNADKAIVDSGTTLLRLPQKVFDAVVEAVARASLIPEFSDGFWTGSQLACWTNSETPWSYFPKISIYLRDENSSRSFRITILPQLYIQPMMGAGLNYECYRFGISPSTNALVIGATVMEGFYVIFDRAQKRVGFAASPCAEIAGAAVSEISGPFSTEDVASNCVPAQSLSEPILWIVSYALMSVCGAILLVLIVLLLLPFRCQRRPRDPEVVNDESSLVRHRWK
From the text: (§1) This assay is a Fluorescence Resonance Energy Transfer Assay (FRET) based assay. The substrate for this assay contains the ‘Swedish’ Lys-Met/Asn-Leu mutation of the amyloid precursor protein (APP) beta-secretase cleavage site. This substrate also contains two fluorophores: (7-methoxycoumarin-4-yl) acetic acid (Mca) is a fluorescent donor with excitation wavelength at 320 nm and emission at 405 nm and 2,4-Dinitrophenyl (Dnp) is a proprietary quencher acceptor. […] Upon cleavage by the beta-secretase, the fluorophore Mca is separated from the quenching group Dnp, restoring the full fluorescence yield of the donor. The increase in fluorescence is linearly related to the rate of proteolysis.
Briefly in a 384-well format recombinant BACE2 protein in a final concentration of 0.4 μg/ml is incubated for 450 minutes at room temperature with 10 μM substrate in incubation buffer (50 mM Citrate buffer pH 5.0, 0.05% PEG, no DMSO) in the absence or presence of compound. Next the amount of proteolysis is directly measured by fluorescence measurement at T=0 and T=450 (excitation at 320 nm and emission at 405 nm). Results are expressed in RFU (Relative Fluorescence Units), as difference between T450 and T0.
(§2) A best-fit curve is fitted by a minimum sum of squares method to the plot of % Controlmin versus compound concentration. From this an IC50 value (inhibitory concentration causing 50% inhibition of activity) can be obtained.

[2] = target: T2, recombinant BACE1 protein (Homo sapiens, UniProt P56817); assay: BACE1 biochemical FRET based assay - Method 1; conditions: BACE1, 120 minutes at room temperature, pH 5.0; read-out: Biochemical FRET based assay - Method 1 pIC50 (converted)
T2 construct: recombinant BACE1 protein in a final concentration of 1 μg/ml
From the text: as §1, with “this assay is an APP derived 13 amino acids peptide that contains the” for “this assay contains the”, “cleavage by BACE1, the fluorophore” for “cleavage by the beta-secretase, the fluorophore”
Briefly in a 384-well format recombinant BACE1 protein in a final concentration of 1 μg/ml is incubated for 120 minutes at room temperature with 10 μm substrate in incubation buffer (40 mM Citrate buffer pH 5.0, 0.04% PEG, 4% DMSO) in the absence or presence of compound. Next the amount of proteolysis is directly measured by fluorescence measurement at T=0 and T=120 (excitation at 320 nm and emission at 405 nm). Results are expressed in RFU (Relative Fluorescence Units), as difference between T120 and T0.
as §2

[3] = system: Abeta 1-42 produced and secreted into the medium of human neuroblastoma SKNBE2 cells; assay: Cellular αLisa assay in SKNBE2 cells, Abeta 42; type: cell-based; conditions: SKNBE2 cells expressing hAPP695, incubated for 18 hours; for IC50: Homo sapiens, SKNBE2, 18 h, read-out: Cellular αLisa assay in SKNBE2 cells Abeta 42 pIC50 (converted)
Experimental: In two αLisa assays the levels of Abeta 1-42 produced and secreted into the medium of human neuroblastoma SKNBE2 cells are quantified. The assay is based on the human neuroblastoma SKNBE2 expressing the wild type Amyloid Precursor Protein (hAPP695). The compounds are diluted and added to these cells, incubated for 18 hours and then measurements of Abeta 1-42 are taken. Abeta 1-42 are measured by sandwich αLisa. αLisa is a sandwich assay using biotinylated antibody AbN/25 attached to streptavidin coated beads and antibody cAb42/26 conjugated acceptor beads for the detection of Abeta 1-42 respectively. In the presence of Abeta 1-42, the beads come into close proximity. The excitation of the donor beads provokes the release of singlet oxygen molecules that trigger a cascade of energy transfer in the acceptor beads, resulting in light emission. Light emission is measured after 1 hour incubation (excitation at […] and emission at 615 nm).
as §2

T2 sequence (P56817 46-501): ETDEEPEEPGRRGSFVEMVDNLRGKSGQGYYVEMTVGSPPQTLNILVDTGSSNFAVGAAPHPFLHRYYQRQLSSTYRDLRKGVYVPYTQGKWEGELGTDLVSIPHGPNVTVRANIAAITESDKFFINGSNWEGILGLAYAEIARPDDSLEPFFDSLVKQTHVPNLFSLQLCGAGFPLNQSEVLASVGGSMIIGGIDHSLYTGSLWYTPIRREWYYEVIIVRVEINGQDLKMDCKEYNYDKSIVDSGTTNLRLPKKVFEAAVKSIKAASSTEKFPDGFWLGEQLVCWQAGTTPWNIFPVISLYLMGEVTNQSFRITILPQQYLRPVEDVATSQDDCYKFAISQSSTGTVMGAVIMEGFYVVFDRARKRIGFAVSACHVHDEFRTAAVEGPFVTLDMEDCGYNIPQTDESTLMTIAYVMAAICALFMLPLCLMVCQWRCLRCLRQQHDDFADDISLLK

Row | SMILES | IC50 [1] [nM] | IC50 [2] [nM] | IC50 [3] [nM] | Cellular αLisa assay in SKNBE2 cells Abeta 42 pIC50 [3]
1 | COc1cnc(C(=O)Nc2ccc(F)c(C3(C)CCC(C)(C#N)C(N)=N3)c2)cn1 (single isomer, unassigned) [Compound 15] | 66.1 | 9.77 | – | 8.16
2 | COc1cnc(C(=O)Nc2ccc(F)c([C@@]3(C)N=C(N)[C@@](C)(S(C)(=O)=O)C[C@@H]3F)c2)cn1 [Compound 18] | > 10000 | 5750 | 3550 | –
3 | COc1cnc(C(=O)Nc2ccc(F)c([C@@]3(C)N=C(N)[C@@](C)(C#N)C[C@@H]3F)c2)cn1 [Compound 7] | 562 | 79.4 | 66.1 | –
4 | COc1cnc(C(=O)Nc2ccc(F)c(C3(C)CCC(C)(C#N)C(N)=N3)c2)cn1 (single isomer, unassigned) [Compound 16] | 1350 | 257 | – | 7.35
5 | COc1cnc(C(=O)Nc2ccc(F)c([C@@]3(C)N=C(N)[C@](C)(C#N)C[C@@H]3F)c2)cn1 [Compound 8] | 70.8 | 12.9 | 13.2 | –
6 | COc1cnc(C(=O)Nc2ccc(F)c([C@@]3(C(F)F)CC[C@@](C)(C#N)C(N)=N3)c2)cn1 [Compound 12] | > 10000 | 6760 | > 8910 | –
7 | COc1cnc(C(=O)Nc2ccc(F)c([C@@]3(C)N=C(N)[C@](C)(S(C)(=O)=O)C[C@@H]3F)c2)cn1 [Compound 17] | 93.3 | 30.9 | 14.5 | –
8 | COc1cnc(C(=O)Nc2ccc(F)c([C@@]3(C(F)F)CC[C@](C)(C#N)C(N)=N3)c2)cn1 [Compound 13] | > 10000 | > 10000 | > 8910 | –
9 | COc1cnc(C(=O)Nc2ccc(F)c([C@]3(C(F)F)CC[C@](C)(C#N)C(N)=N3)c2)cn1 [Compound 11] | 891 | 138 | 339 | –
10 | CO[C@@H]1C[C@@](C)(S(C)(=O)=O)C(N)=N[C@]1(C)c1cc(NC(=O)c2cnc(OCF)cn2)ccc1F [Compound 48a] | 447 | 24 | 16.6 | –
11 | COc1cnc(C(=O)Nc2ccc(F)c([C@@]3(C)N=C(N)[C@@](C)(C#N)C[C@H]3F)c2)cn1 [Compound 6] | 537 | 145 | 240 | –
12 | COc1cnc(C(=O)Nc2ccc(F)c([C@]3(C(F)F)CC[C@@](C)(C#N)C(N)=N3)c2)cn1 [Compound 14] | 115 | 11.7 | 49 | –
13 | CO[C@H]1C[C@@](C)(C#N)C(N)=N[C@]1(C)c1cc(NC(=O)c2cnc(OCF)cn2)ccc1F [Compound 49a] | 324 | 33.9 | 17 | –
14 | C[C@]1(c2cc(NC(=O)c3cnc(OCF)cn3)ccc2F)N=C(N)[C@](C)(S(C)(=O)=O)CC1(F)F [Compound 24] | 977 | 91.2 | 468 | –
15 | C[C@]1(S(C)(=O)=O)CC(F)(F)[C@@](C)(c2cc(NC(=O)c3cnc(OCF)cn3)ccc2F)N=C1N [Compound 23] | 4680 | 1660 | 4470 | –

Second part, the molecule after the results:

Row | IC50 [1] [nM] | IC50 [2] [nM] | IC50 [3] [nM] | Cellular αLisa assay in SKNBE2 cells Abeta 42 pIC50 [3] | SMILES
16 | 4.17 | 3.89 | 7.08 | – | CC1(S(C)(=O)=O)CCC(CF)(c2cc(NC(=O)c3ncc(F)cn3)ccc2F)N=C1N (stereo not drawn) [Compound 38]
17 | 22.4 | 3.8 | 2.4 | – | CC1(S(C)(=O)=O)CCC(CF)(c2cc(NC(=O)c3cnc(C(F)F)cn3)ccc2F)N=C1N (stereo not drawn) [Compound 42]
18 | 417 | 53.7 | 50.1 | – | COc1cnc(C(=O)Nc2ccc(F)c([C@]3(CF)CC[C@@](C)(C#N)C(N)=N3)c2)cn1 [Compound 5]
19 | 302 | 380 | 380 | – | C[C@]1(S(C)(=O)=O)CC[C@@](CF)(c2cc(NC(=O)c3ccc(F)cn3)ccc2F)N=C1N [Compound 19]
20 | 32.4 | 3.72 | 3.47 | – | CCOc1cnc(C(=O)Nc2ccc(F)c(C3(CF)CCC(C)(S(C)(=O)=O)C(N)=N3)c2)cn1 (stereo not drawn) [Compound 37]
21 | 13.5 | 3.16 | 3.24 | – | COc1cnc(C(=O)Nc2ccc(F)c(C3(CF)CCC(C)(S(C)(=O)=O)C(N)=N3)c2)nc1 (stereo not drawn) [Compound 45]
22 | 2.04 | 2.4 | 3.72 | – | CC1(S(=O)(=O)C2CC2)CCC(CF)(c2cc(NC(=O)c3ccc(F)cn3)ccc2F)N=C1N (stereo not drawn) [Compound 25]
23 | 3.39 | 3.63 | 1.15 | – | CC1(S(C)(=O)=O)CCC(CF)(c2cc(NC(=O)c3ncc(Cl)cn3)ccc2F)N=C1N (stereo not drawn) [Compound 44]
24 | 21.9 | 3.89 | 1.12 | – | COc1cnc(C(=O)Nc2ccc(F)c([C@]3(C)CC[C@@](C)(S(C)(=O)=O)C(N)=N3)c2)cn1 [Compound 10]
25 | 3.31 | 4.57 | 1.86 | – | Cc1nc(C(=O)Nc2ccc(F)c(C3(CF)CCC(C)(S(C)(=O)=O)C(N)=N3)c2)co1 (stereo not drawn) [Compound 40]
26 | > 10000 | 2630 | 1350 | – | COc1cnc(C(=O)Nc2ccc(F)c([C@]3(CF)CC[C@](C)(S(C)(=O)=O)C(N)=N3)c2)cn1 [Compound 1]
27 | 5750 | 851 | 692 | – | COc1cnc(C(=O)Nc2ccc(F)c([C@]3(CF)CC[C@](C)(C#N)C(N)=N3)c2)cn1 [Compound 4]
28 | 64.6 | 9.12 | 4.47 | – | CC1(S(C)(=O)=O)CCC(CF)(c2cc(NC(=O)c3ncc(C(F)(F)F)cn3)ccc2F)N=C1N (stereo not drawn) [Compound 43]
29 | 4.37 | 3.55 | 16.6 | – | C[C@@]1(S(C)(=O)=O)CC[C@@](CF)(c2cc(NC(=O)c3ccc(F)cn3)cc(F)c2F)N=C1N [Compound 47]
